In PubChem BioAssay (NCI):
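Step 1: Grow cells in 96-well plates. Step 2: Expose to compound for 48 hours at 5 concentrations. Step 3: Interpolate endpoints linearly; if unreached, use highest concentration. TGI: concentration producing complete growth inhibition.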

How the values were obtained:
Assay in all cases: inhibition of tumour cell growth, NCI panel, 48 h
SK-MEL-2 melanoma = system: SK-MEL-2 melanoma
TK-10 renal = system: TK-10 renal
SF-539 CNS = system: SF-539 CNS
MALME-3M melanoma = system: MALME-3M melanoma
OVCAR-5 ovarian = system: OVCAR-5 ovarian
SK-OV-3 ovarian = system: SK-OV-3 ovarian
SNB-78 CNS = system: SNB-78 CNS
XF 498 CNS = system: XF 498 CNS
OVCAR-8 ovarian = system: OVCAR-8 ovarian
M19-MEL melanoma = system: M19-MEL melanoma
K-562 leukemia = system: K-562 leukemia
NCI-H522 lung = system: NCI-H522 lung
KM20L2 colon = system: KM20L2 colon
LOX IMVI melanoma = system: LOX IMVI melanoma
SR leukemia = system: SR leukemia
HOP-92 NSCLC = system: HOP-92 NSCLC
NCI-H23 lung = system: NCI-H23 lung
RXF-631 renal = system: RXF-631 renal
CAKI-1 renal = system: CAKI-1 renal
HCT-116 colon = system: HCT-116 colon
ACHN renal = system: ACHN renal
COLO 205 colon = system: COLO 205 colon
HOP-62 NSCLC = system: HOP-62 NSCLC
NCI-H460 lung = system: NCI-H460 lung
CCRF-CEM leukemia = system: CCRF-CEM leukemia
SNB-75 CNS = system: SNB-75 CNS
SW-620 colon = system: SW-620 colon
786-0 renal = system: 786-0 renal
HCT-15 colon = system: HCT-15 colon
UACC-257 melanoma = system: UACC-257 melanoma
OVCAR-4 ovarian = system: OVCAR-4 ovarian
HL-60(TB) leukemia = system: HL-60(TB) leukemia
DLD-1 colon = system: DLD-1 colon
HOP-18 NSCLC = system: HOP-18 NSCLC
KM12 colon = system: KM12 colon
UO-31 renal = system: UO-31 renal
LXFL 529 NSCLC = system: LXFL 529 NSCLC
DMS 114 small cell lung = system: DMS 114 small cell lung
SK-MEL-28 melanoma = system: SK-MEL-28 melanoma
UACC-62 melanoma = system: UACC-62 melanoma
EKVX NSCLC = system: EKVX NSCLC
M14 melanoma = system: M14 melanoma
U251 CNS = system: U251 CNS
RPMI-8226 leukemia = system: RPMI-8226 leukemia
SF-268 CNS = system: SF-268 CNS
SF-295 CNS = system: SF-295 CNS
HT29 colon = system: HT29 colon
IGROV1 ovarian = system: IGROV1 ovarian
SNB-19 CNS = system: SNB-19 CNS
OVCAR-3 ovarian = system: OVCAR-3 ovarian
A549 NSCLC = system: A549 NSCLC
SN12C renal = system: SN12C renal
RXF 393 renal = system: RXF 393 renal
HCC-2998 colon = system: HCC-2998 colon
NCI-H226 lung = system: NCI-H226 lung
DMS 273 small cell lung = system: DMS 273 small cell lung
MOLT-4 leukemia = system: MOLT-4 leukemia
SK-MEL-5 melanoma = system: SK-MEL-5 melanoma
A498 renal = system: A498 renal

Q: How did the TGI (SK-MEL-2 melanoma) turn out when CCN(CC)CCn1c2c3ccccc3ccc2c2oc(=O)c3ccccc3c21 was run?
A: > 100 µM

Q: What about the TGI (TK-10 renal) of the same compound?
A: > 100 µM

Q: And the TGI (SF-539 CNS)?
A: 66.1 µM

Q: What about the TGI (MALME-3M melanoma) of the same compound?
A: > 100 µM

Q: And the TGI (OVCAR-5 ovarian)?
A: > 100 µM

Q: And the TGI (SK-OV-3 ovarian)?
A: > 100 µM

Q: What about the TGI (SNB-78 CNS) of the same compound?
A: > 100 µM

Q: And the TGI (XF 498 CNS)?
A: > 100 µM

Q: What about the TGI (OVCAR-8 ovarian) of the same compound?
A: > 100 µM

Q: What about the TGI (M19-MEL melanoma) of the same compound?
A: > 100 µM

Q: And the TGI (K-562 leukemia)?
A: > 100 µM

Q: And the TGI (NCI-H522 lung)?
A: > 100 µM

Q: And the TGI (KM20L2 colon)?
A: > 100 µM

Q: And the TGI (LOX IMVI melanoma)?
A: > 100 µM

Q: And the TGI (SR leukemia)?
A: > 100 µM

Q: What about the TGI (HOP-92 NSCLC) of the same compound?
A: > 100 µM

Q: And the TGI (NCI-H23 lung)?
A: > 100 µM

Q: What about the TGI (RXF-631 renal) of the same compound?
A: > 100 µM

Q: What about the TGI (CAKI-1 renal) of the same compound?
A: > 100 µM

Q: What about the TGI (HCT-116 colon) of the same compound?
A: > 100 µM

Q: And the TGI (ACHN renal)?
A: > 100 µM

Q: What about the TGI (COLO 205 colon) of the same compound?
A: > 100 µM

Q: And the TGI (HOP-62 NSCLC)?
A: 80.3 µM

Q: And the TGI (NCI-H460 lung)?
A: > 100 µM

Q: What about the TGI (CCRF-CEM leukemia) of the same compound?
A: > 100 µM

Q: And the TGI (SNB-75 CNS)?
A: 42.8 µM

Q: And the TGI (SW-620 colon)?
A: > 100 µM

Q: What about the TGI (786-0 renal) of the same compound?
A: 58.5 µM

Q: And the TGI (HCT-15 colon)?
A: > 100 µM

Q: What about the TGI (UACC-257 melanoma) of the same compound?
A: > 100 µM

Q: And the TGI (OVCAR-4 ovarian)?
A: 96.5 µM

Q: What about the TGI (HL-60(TB) leukemia) of the same compound?
A: > 100 µM

Q: And the TGI (DLD-1 colon)?
A: > 100 µM

Q: What about the TGI (HOP-18 NSCLC) of the same compound?
A: > 100 µM

Q: What about the TGI (KM12 colon) of the same compound?
A: > 100 µM

Q: What about the TGI (UO-31 renal) of the same compound?
A: > 100 µM

Q: What about the TGI (LXFL 529 NSCLC) of the same compound?
A: > 100 µM

Q: And the TGI (DMS 114 small cell lung)?
A: > 100 µM

Q: What about the TGI (SK-MEL-28 melanoma) of the same compound?
A: > 100 µM

Q: And the TGI (UACC-62 melanoma)?
A: > 100 µM

Q: What about the TGI (EKVX NSCLC) of the same compound?
A: > 100 µM

Q: And the TGI (M14 melanoma)?
A: > 100 µM

Q: What about the TGI (U251 CNS) of the same compound?
A: > 100 µM

Q: And the TGI (RPMI-8226 leukemia)?
A: > 100 µM

Q: What about the TGI (SF-268 CNS) of the same compound?
A: > 100 µM

Q: What about the TGI (SF-295 CNS) of the same compound?
A: > 100 µM

Q: What about the TGI (HT29 colon) of the same compound?
A: > 100 µM

Q: And the TGI (IGROV1 ovarian)?
A: > 100 µM

Q: What about the TGI (SNB-19 CNS) of the same compound?
A: > 100 µM

Q: What about the TGI (OVCAR-3 ovarian) of the same compound?
A: > 100 µM

Q: And the TGI (A549 NSCLC)?
A: > 100 µM

Q: CC1(C)C(=O)N(c2ccccc2)C(=O)N1c1nc2ccccc2[nH]1 was tested. Which TGI (SK-MEL-2 melanoma) did it give?
A: > 100 µM

Q: And the TGI (SN12C renal)?
A: > 100 µM

Q: And the TGI (RXF 393 renal)?
A: > 100 µM

Q: What about the TGI (TK-10 renal) of the same compound?
A: > 100 µM

Q: What about the TGI (MALME-3M melanoma) of the same compound?
A: > 100 µM

Q: And the TGI (OVCAR-5 ovarian)?
A: > 100 µM

Q: What about the TGI (SK-OV-3 ovarian) of the same compound?
A: > 100 µM

Q: And the TGI (SNB-78 CNS)?
A: > 100 µM

Q: What about the TGI (XF 498 CNS) of the same compound?
A: > 100 µM

Q: What about the TGI (OVCAR-8 ovarian) of the same compound?
A: > 100 µM

Q: What about the TGI (HCC-2998 colon) of the same compound?
A: > 100 µM

Q: And the TGI (M19-MEL melanoma)?
A: > 100 µM

Q: And the TGI (K-562 leukemia)?
A: > 100 µM

Q: And the TGI (NCI-H522 lung)?
A: > 100 µM

Q: And the TGI (KM20L2 colon)?
A: > 100 µM

Q: What about the TGI (LOX IMVI melanoma) of the same compound?
A: > 100 µM

Q: And the TGI (SR leukemia)?
A: > 100 µM

Q: What about the TGI (HOP-92 NSCLC) of the same compound?
A: > 100 µM

Q: And the TGI (NCI-H23 lung)?
A: > 100 µM

Q: And the TGI (NCI-H226 lung)?
A: > 100 µM

Q: What about the TGI (RXF-631 renal) of the same compound?
A: > 100 µM

Q: What about the TGI (CAKI-1 renal) of the same compound?
A: > 100 µM

Q: What about the TGI (HCT-116 colon) of the same compound?
A: > 100 µM

Q: What about the TGI (ACHN renal) of the same compound?
A: > 100 µM

Q: What about the TGI (COLO 205 colon) of the same compound?
A: > 100 µM

Q: What about the TGI (HOP-62 NSCLC) of the same compound?
A: > 100 µM

Q: What about the TGI (NCI-H460 lung) of the same compound?
A: > 100 µM

Q: And the TGI (CCRF-CEM leukemia)?
A: > 100 µM

Q: And the TGI (SNB-75 CNS)?
A: > 100 µM

Q: What about the TGI (SW-620 colon) of the same compound?
A: 36.3 µM

Q: And the TGI (786-0 renal)?
A: > 100 µM

Q: And the TGI (HCT-15 colon)?
A: > 100 µM

Q: And the TGI (UACC-257 melanoma)?
A: > 100 µM

Q: What about the TGI (HL-60(TB) leukemia) of the same compound?
A: > 100 µM

Q: What about the TGI (DLD-1 colon) of the same compound?
A: > 100 µM

Q: And the TGI (HOP-18 NSCLC)?
A: > 100 µM

Q: What about the TGI (KM12 colon) of the same compound?
A: > 100 µM

Q: What about the TGI (UO-31 renal) of the same compound?
A: > 100 µM

Q: What about the TGI (LXFL 529 NSCLC) of the same compound?
A: > 100 µM

Q: And the TGI (DMS 114 small cell lung)?
A: > 100 µM

Q: What about the TGI (SK-MEL-28 melanoma) of the same compound?
A: > 100 µM

Q: And the TGI (UACC-62 melanoma)?
A: > 100 µM

Q: And the TGI (EKVX NSCLC)?
A: > 100 µM

Q: What about the TGI (M14 melanoma) of the same compound?
A: > 100 µM

Q: What about the TGI (DMS 273 small cell lung) of the same compound?
A: > 100 µM

Q: What about the TGI (RPMI-8226 leukemia) of the same compound?
A: > 100 µM

Q: And the TGI (SF-268 CNS)?
A: > 100 µM

Q: And the TGI (MOLT-4 leukemia)?
A: > 100 µM

Q: And the TGI (SK-MEL-5 melanoma)?
A: > 100 µM

Q: What about the TGI (SF-295 CNS) of the same compound?
A: > 100 µM

Q: And the TGI (HT29 colon)?
A: > 100 µM

Q: And the TGI (A498 renal)?
A: > 100 µM

Q: What about the TGI (IGROV1 ovarian) of the same compound?
A: > 100 µM

Q: And the TGI (SNB-19 CNS)?
A: > 100 µM

Q: And the TGI (OVCAR-3 ovarian)?
A: > 100 µM

Q: And the TGI (A549 NSCLC)?
A: > 100 µM
